# Results as given in ChEMBL document CHEMBL1201862, “PubChem BioAssay data set” (2004).
# The source made the active and inactive calls.
# Legend:
# [1] = biological target: T1, Histone-lysine N-methyltransferase NSD2 (Homo sapiens, UniProt O96028); assay type: biochemical
# T1 sequence (O96028 whole entry): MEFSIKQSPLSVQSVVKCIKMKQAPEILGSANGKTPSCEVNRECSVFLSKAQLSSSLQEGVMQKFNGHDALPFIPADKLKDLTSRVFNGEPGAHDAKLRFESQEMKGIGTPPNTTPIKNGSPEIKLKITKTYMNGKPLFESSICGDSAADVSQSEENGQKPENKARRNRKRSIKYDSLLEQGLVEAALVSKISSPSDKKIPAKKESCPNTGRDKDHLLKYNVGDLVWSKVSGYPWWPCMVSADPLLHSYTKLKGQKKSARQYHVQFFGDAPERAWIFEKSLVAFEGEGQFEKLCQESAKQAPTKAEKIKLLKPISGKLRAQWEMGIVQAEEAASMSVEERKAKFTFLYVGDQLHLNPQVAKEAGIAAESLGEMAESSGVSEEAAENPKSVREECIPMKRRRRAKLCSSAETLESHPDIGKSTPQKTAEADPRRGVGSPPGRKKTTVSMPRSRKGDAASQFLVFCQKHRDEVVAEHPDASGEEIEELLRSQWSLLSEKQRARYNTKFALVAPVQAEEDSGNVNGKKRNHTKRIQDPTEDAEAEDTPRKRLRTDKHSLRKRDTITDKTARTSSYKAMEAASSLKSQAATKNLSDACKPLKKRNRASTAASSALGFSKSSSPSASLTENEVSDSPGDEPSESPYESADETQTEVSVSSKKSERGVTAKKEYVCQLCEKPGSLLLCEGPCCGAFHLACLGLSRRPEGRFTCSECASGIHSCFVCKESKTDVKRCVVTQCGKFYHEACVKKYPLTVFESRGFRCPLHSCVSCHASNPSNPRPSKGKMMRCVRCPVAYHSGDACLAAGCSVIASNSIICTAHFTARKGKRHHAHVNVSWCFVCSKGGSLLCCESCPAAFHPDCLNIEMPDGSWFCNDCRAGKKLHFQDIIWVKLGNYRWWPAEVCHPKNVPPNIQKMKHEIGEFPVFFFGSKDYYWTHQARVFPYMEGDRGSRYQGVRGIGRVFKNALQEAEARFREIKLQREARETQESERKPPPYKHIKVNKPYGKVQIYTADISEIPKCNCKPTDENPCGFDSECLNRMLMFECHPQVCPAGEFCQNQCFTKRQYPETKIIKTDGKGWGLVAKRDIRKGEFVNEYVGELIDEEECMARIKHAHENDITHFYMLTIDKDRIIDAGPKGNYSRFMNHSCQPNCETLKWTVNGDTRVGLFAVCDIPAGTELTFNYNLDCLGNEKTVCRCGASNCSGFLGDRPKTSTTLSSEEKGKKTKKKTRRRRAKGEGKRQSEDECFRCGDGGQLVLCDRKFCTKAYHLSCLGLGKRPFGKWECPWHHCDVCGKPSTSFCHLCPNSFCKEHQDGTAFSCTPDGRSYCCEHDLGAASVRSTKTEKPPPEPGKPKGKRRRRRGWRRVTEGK
# [2] = growth suppression of PTEN-null colon cells, dose response, cell-based, HCT116 PTEN knockout (AID 1047); assay type: functional;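 further: HCT116 colon tumor cells with PTEN knocked out; cells exposed to compound for 60 hours before readout; potency for loss of cell viability measured by luminescence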
# [3] = control 3'UTR Renilla luciferase suppression, dose response, counter-screen for Shn3 inhibitor project, cell-based, Clone20-Shn3RL, cherry-picked (AID 624133); assay type: functional
# [4] = biological target: T2, Ubiquitin-conjugating enzyme E2 N (Homo sapiens, UniProt P61088); assay type: functional;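 further: Dose-response confirmation in a TR-FRET assay detecting UBC13-driven polyubiquitin chain formation, inhibition measured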
# T2 sequence (P61088 whole entry): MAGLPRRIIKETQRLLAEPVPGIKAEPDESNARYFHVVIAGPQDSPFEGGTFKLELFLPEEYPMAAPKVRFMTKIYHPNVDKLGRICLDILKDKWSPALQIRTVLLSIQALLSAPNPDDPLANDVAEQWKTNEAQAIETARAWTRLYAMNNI
# [5] = HepG2 cell cytotoxicity, dose response, cytotoxicity control for Shn3 inhibitor project, CellTiter-Glo, cherry-picked (AID 624134); assay type: functional, cell-based
# [6] = Luminescence Cell-Based Dose Response HTS to Identify Inhibitors of 5'UTR Stem-Loop Driven Prion Protein mRNA Translation in H4 Neuroglioblastoma Cells. [Related pubchem assays: 1827 (Project Summary), 1813 (Primary HTS)]; assay type: functional
# [7] = inhibitors of SNCA 5'UTR-driven reporter translation, confirmation, H4 neuroglioma cells, luminescence (AID 1988); assay type: functional, cell-based
# [8] = Shn3 3'UTR reporter inhibitors, dose response, cell-based, Clone20 osteoblasts, firefly luciferase, cherry-picked (AID 624132); assay type: functional;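 further: firefly luciferase luminescence from reporter carrying the Shn3 3'UTR in osteoblasts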
# [9] = growth suppression of beta-catenin-knockout colon cells, dose response, cell-based, HCT116, human colon tumor (AID 1045); assay type: functional;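 further: HCT116 colon tumor cells with beta catenin knocked out; cells exposed to compound for 60 hours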
# [10] = inhibitors of firefly luciferase expression or activity, dose response, H4 neuroglioma cells, luminescence (AID 1990); assay type: functional, cell-based
# [11] = biological target: Luciferin 4-monooxygenase (Photinus pyralis, UniProt P08659); assay: Counter Screen for Luciferase-based Assay Positives. [Related pubchem assays: 620, 618, 411 ]
# Sequence of Luciferin 4-monooxygenase (P08659 whole entry): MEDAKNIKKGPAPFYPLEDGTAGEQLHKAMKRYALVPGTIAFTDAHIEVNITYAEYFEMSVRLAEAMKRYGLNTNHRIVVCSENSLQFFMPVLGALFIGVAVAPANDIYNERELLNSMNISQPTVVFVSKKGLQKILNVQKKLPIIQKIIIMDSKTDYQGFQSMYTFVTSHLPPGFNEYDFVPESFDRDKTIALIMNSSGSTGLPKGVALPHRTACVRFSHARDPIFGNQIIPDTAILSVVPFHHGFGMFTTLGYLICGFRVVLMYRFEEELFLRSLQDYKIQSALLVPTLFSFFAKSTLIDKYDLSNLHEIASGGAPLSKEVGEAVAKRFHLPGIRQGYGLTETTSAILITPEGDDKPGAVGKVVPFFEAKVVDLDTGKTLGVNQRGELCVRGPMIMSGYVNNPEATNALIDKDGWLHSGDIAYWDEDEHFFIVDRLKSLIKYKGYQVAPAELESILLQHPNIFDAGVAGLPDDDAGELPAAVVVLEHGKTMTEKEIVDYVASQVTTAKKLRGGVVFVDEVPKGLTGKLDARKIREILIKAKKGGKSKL
# [12] = system: HT-1080; assay: cytotoxicity in HT1080 fibrosarcoma cells, cell-based, fluorescence readout (AID 620); assay type: functional; settings: Homo sapiens
# [13] = cytotoxicity toward NIH3T3 fibroblasts, dose response, counter-screen, cell-based, ATP luminescence, mouse fibroblasts (AID 2010); assay type: functional;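 further: cells exposed to compound for about 90 hours before reading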
# [14] = cells
# [15] = inhibitors of intracellular T. cruzi replication, confirmation, NIH3T3 host cells, beta-gal luminescence (AID 2044); assay type: functional, cell-based;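 further: intracellular parasites grown in NIH/3T3 mouse fibroblasts as host cells; luminescent beta-galactosidase reporter signal from transgenic T. cruzi replicating inside host cells; inhibitors lower the luminescence signal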
# [16] = biological target: Estrogen receptor beta (Homo sapiens, UniProt Q92731); assay: ERβ–SRC-3 coactivator interaction inhibitors, confirmation, orthogonal assay, biochemical, ELISA, streptavidin-HRP readout (AID 1060)
# Sequence of Estrogen receptor beta (Q92731 whole entry): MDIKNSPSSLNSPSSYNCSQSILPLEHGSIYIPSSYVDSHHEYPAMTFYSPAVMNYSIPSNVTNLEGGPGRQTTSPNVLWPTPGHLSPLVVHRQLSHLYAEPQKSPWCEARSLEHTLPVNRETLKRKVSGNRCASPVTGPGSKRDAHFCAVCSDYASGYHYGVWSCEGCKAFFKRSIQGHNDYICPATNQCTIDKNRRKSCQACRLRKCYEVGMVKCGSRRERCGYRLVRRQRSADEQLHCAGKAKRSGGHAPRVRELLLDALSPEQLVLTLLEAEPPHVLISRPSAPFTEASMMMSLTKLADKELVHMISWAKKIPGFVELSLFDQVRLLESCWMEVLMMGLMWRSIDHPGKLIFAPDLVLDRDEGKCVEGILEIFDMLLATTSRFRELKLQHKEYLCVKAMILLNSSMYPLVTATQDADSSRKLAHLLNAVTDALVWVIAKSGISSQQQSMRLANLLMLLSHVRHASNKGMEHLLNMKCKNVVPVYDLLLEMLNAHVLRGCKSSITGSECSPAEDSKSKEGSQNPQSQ
compound,measurement,setting,value
CCCCCCCSc1cc(OC)c(CCNC)cc1OC,AC50,[1],17.5 µM (active)
same,EC50,[2],9.72 µM (active)
same,AC50,[3],10.5 µM (active)
same,IC50,[4],> 20 µM (inactive)
same,AC50,[5],8.47 µM (active)
same,EC50,[6],> 120 µM (not active)
same,EC50,[7],11.9 µM (active)
same,AC50,[8],10.6 µM (active)
same,EC50,[9],8.71 µM (active)
same,EC50,[10],> 120 µM (not active)
O=C(CSc1nnc(-c2csc3c2CCCC3)o1)Nc1ccccc1,EC50,[11],4.34 µM (active)
same,EC50,[12],> 50 µM (not active)
CC1CN(CCOCCSc2ccc(Cl)cc2)CC(C)O1 (centres undefined),EC50,[13],> 60 µM (not active)
same,EC50,[14],0.025 µM (active)
same,EC50,[15],< 0.1 µM (active)
O=C(C1=C[C@H](C2CCCCC2)C[C@H](OCc2ccc(CO)cc2)O1)N1CCN(Cc2ccc3c(c2)OCO3)CC1,EC50,[13],> 60 µM (not active)
same,EC50,[14],0.156 µM (active)
same,EC50,[15],< 0.1 µM (active)
N#Cc1c(NC(=O)CN2CCCCC2)sc2c1CCCC2,IC50,[16],0.0343 µM (not active)
